Several values for one entry are separate records, joined by “and”; a condition that tells them apart may be missing. Identical values can stand only once. Inconclusive results and toxic doses are left out. The calls were made as follows: active = survival T/C of 150% or more; inactive = T/C below 125% in these data.
Test system: B6C3F1 mice, Lewis lung carcinoma iv, survival T/C
Assay: NCI In Vivo Anticancer Drug Screen. Data for tumor model Lewis Lung Carcinoma (intravenous) in B6C3F1 mice
Details: endpoint: median survival time, schedule: Q01DX009 (ip), higher = longer survival
Summary of the method: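 Antitumor activity is assessed in tumor-bearing mice by comparing survival after compound treatment against vehicle-treated controls, reported as a T/C ratio.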

[1] = dose: 12.5 mg/kg/injection, vehicle: saline with Tween-80
[2] = dose: 25.0 mg/kg/injection, vehicle: saline with Tween-80
[3] = dose: 6.25 mg/kg/injection, vehicle: Klucel (hydroxypropylcellulose) (HPC)
[4] = dose: 12.5 mg/kg/injection, vehicle: Klucel (hydroxypropylcellulose) (HPC)
[5] = dose: 25.0 mg/kg/injection, vehicle: Klucel (hydroxypropylcellulose) (HPC)
[6] = dose: 50.0 mg/kg/injection, vehicle: Klucel (hydroxypropylcellulose) (HPC)
[7] = dose: 100.0 mg/kg/injection, vehicle: Klucel (hydroxypropylcellulose) (HPC)
[8] = dose: 50.0 mg/kg/injection, vehicle: saline with Tween-80
[9] = dose: 100.0 mg/kg/injection, vehicle: saline with Tween-80
[10] = dose: 200.0 mg/kg/injection, vehicle: saline with Tween-80
[11] = dose: 400.0 mg/kg/injection, vehicle: saline with Tween-80

Measured: T/C

NC(=O)c1[nH]nc(C2OC(CO)C(O)C2O)c1O (centres undefined)
inactive: dose: 0.31 mg/kg/injection, vehicle: saline 91 % of control and 105 % of control | dose: 0.62 mg/kg/injection, vehicle: saline 98 % of control and 101 % of control | dose: 1.25 mg/kg/injection, vehicle: saline 120 % of control and 122 % of control | dose: 2.5 mg/kg/injection, vehicle: saline 122 % of control

CCC1CCCCN1C(=S)N/N=C(\C)c1ccccn1 (centres undefined)
inactive: dose: 6.25 mg/kg/injection, vehicle: saline with Tween-80 101 % of control | [1] 115 % of control | [2] 104 % of control

CC(=O)OC1(C)CC(C)C(=O)C(C(O)CC2CC(=O)NC(=O)C2)C1 (centres undefined)
inactive: dose: 15.6 micrograms/kg/injection, vehicle: saline 96 % of control | dose: 31.3 micrograms/kg/injection, vehicle: saline 95 % of control | dose: 62.5 micrograms/kg/injection, vehicle: saline 100 % of control | dose: 125.0 micrograms/kg/injection, vehicle: saline 100 % of control | dose: 250.0 micrograms/kg/injection, vehicle: saline 107 % of control

CC[C@@]1(O)C(=O)OCc2c1cc1n(c2=O)Cc2cc3cc(O)ccc3nc2-1
inactive: dose: 0.18 mg/kg/injection, vehicle: saline 106 % of control | dose: 0.37 mg/kg/injection, vehicle: saline 104 % of control | dose: 0.75 mg/kg/injection, vehicle: saline 102 % of control | dose: 1.5 mg/kg/injection, vehicle: saline 103 % of control | dose: 3.0 mg/kg/injection, vehicle: saline 110 % of control

C(C#CCN1CCOCC1)#CCN1CCOCC1
inactive: [3] 108 % of control | [4] 101 % of control | [5] 102 % of control | [6] 100 % of control | [7] 102 % of control | dose: 400.0 mg/kg/injection, vehicle: Klucel (hydroxypropylcellulose) (HPC) 106 % of control

C=COC(=O)C(Cc1ccccc1)NC(=O)OCc1ccccc1 (centres undefined)
inactive: [2] 103 % of control | [8] 112 % of control | [9] 98 % of control | [10] 105 % of control | [11] 94 % of control

CCCCOCN(COCCCC)C(C)Cc1ccccc1 (centres undefined)
inactive: [1] 96 % of control | [2] 107 % of control | [8] 104 % of control | [9] 92 % of control | [10] 89 % of control

COc1cccc2c1C(=O)c1c(O)c3c(c(O)c1C2=O)C[C@@](O)(/C(C)=N\NC(=O)CO)C[C@@H]3OC1CC(N)C(O)C(C)O1 (some centres undefined)
inactive: dose: 6.25 mg/kg/injection, vehicle: saline 87 % of control

CC(=O)OC1C(O)C(C)OC(OC2C(OC(=O)C3CCC4C(C3)OC3(CC(OC(=O)/C=C/c5ccccc5)C(C)CO3)C43CO3)OC(C)C(O)C2OC(C)=O)C1O (centres undefined)
inactive: dose: 1.0 mg/kg/injection, vehicle: distilled water + Tween-80 105 % of control | dose: 2.0 mg/kg/injection, vehicle: distilled water + Tween-80 99 % of control | dose: 4.0 mg/kg/injection, vehicle: distilled water + Tween-80 100 % of control | dose: 8.0 mg/kg/injection, vehicle: distilled water + Tween-80 102 % of control | dose: 16.0 mg/kg/injection, vehicle: distilled water + Tween-80 91 % of control

NC(=O)CC(N)C(=O)O (centres undefined)
inactive: dose: 50.0 mg/kg/injection, vehicle: other 95 % of control | [8] 102 % of control | dose: 100.0 mg/kg/injection, vehicle: other 110 % of control | [9] 96 % of control | dose: 200.0 mg/kg/injection, vehicle: other 97 % of control | [10] 96 % of control | dose: 400.0 mg/kg/injection, vehicle: other 92 % of control | [11] 97 % of control | dose: 800.0 mg/kg/injection, vehicle: other 104 % of control | dose: 800.0 mg/kg/injection, vehicle: saline with Tween-80 100 % of control | dose: 1600.0 mg/kg/injection, vehicle: other 99 % of control | dose: 1600.0 mg/kg/injection, vehicle: saline with Tween-80 96 % of control

O=C(O)c1cc(Cc2ccc(O)c(C(=O)O)c2)ccc1O (tested in a mixture with another compound)
inactive: [3] 107 % of control | [4] 97 % of control | [5] 101 % of control | [6] 97 % of control | [7] 95 % of control

O=C(Nc1ccccc1)c1c(O)[nH]c(=S)[nH]c1=O
inactive: [1] 103 % of control | [2] 106 % of control | [8] 115 % of control

CCN1/C(=C/C=C/C=C\C=C\c2sc3ccc4ccccc4c3[n+]2CC)Sc2ccc3ccccc3c21
inactive: dose: 1.25 mg/kg/injection, vehicle: saline with Tween-80 104 % of control | dose: 2.5 mg/kg/injection, vehicle: saline with Tween-80 100 % of control and 103 % of control | dose: 5.0 mg/kg/injection, vehicle: saline with Tween-80 104 % of control | dose: 10.0 mg/kg/injection, vehicle: saline with Tween-80 98 % of control | dose: 20.0 mg/kg/injection, vehicle: saline with Tween-80 103 % of control

COc1cc2c(c(OC)c1OC)-c1c(cc3c(c1OC)OCO3)CC(C)C(C)(O)C2OC(=O)c1ccccc1 (centres undefined)
inactive: dose: 6.25 mg/kg/injection, vehicle: saline + alcohol 93 % of control | dose: 12.5 mg/kg/injection, vehicle: saline + alcohol 96 % of control | dose: 25.0 mg/kg/injection, vehicle: saline + alcohol 107 % of control | dose: 50.0 mg/kg/injection, vehicle: saline + alcohol 102 % of control | dose: 100.0 mg/kg/injection, vehicle: saline + alcohol 106 % of control | dose: 200.0 mg/kg/injection, vehicle: saline + alcohol 103 % of control

COc1cc2cc3cc4cc(OC)c(OC)cc4c(C)[n+]3cc2cc1OC (tested in a mixture with another compound)
inactive: dose: 12.5 mg/kg/injection, vehicle: saline 112 % of control | dose: 25.0 mg/kg/injection, vehicle: saline 106 % of control | dose: 50.0 mg/kg/injection, vehicle: saline 117 % of control | dose: 100.0 mg/kg/injection, vehicle: saline 120 % of control
